Key:
HIV-RF = assay: In-vitro anti-viral test on C81-66 cells infected with HIV-RF (wells positive for HIV p24); type: cell-based; conditions: no pretreatment, number of wells positive for HIV p24 out of two replicates
Excerpt: NOTE: • 1. The results are expressed as the number of wells positive for HIV p24 (out of the two replicates at each multiplicity of infection). Thus, 2 means that both wells contained viral antigen, while 0 means no virus was present. • 2. Pretreatment means that the antibodies to Human Alpha feto protein were present during HIV virus absorption as well as afterwards. • 3. An error in diluting the antibodies was made, so that following the first three concentrations (6,2, and 0.6 percent), an extra 10 fold dilution was made, so that the next dilution was 0.02% rather than 0.2%.

[1] = biological target: T1, pure rat Alpha Feto Protein (Rattus norvegicus, UniProt P02773); assay: Binding of 3H arachidonic acid (C20:4) to protein, free ligand removed with Lipidex 1000; conditions: 10 µg pure rat AFP; 270.000 DPM 3H C20:4, overnight at 4° C, 10 mM potassium phosphate buffer pH 7.4
T1 sequence (P02773 25-611): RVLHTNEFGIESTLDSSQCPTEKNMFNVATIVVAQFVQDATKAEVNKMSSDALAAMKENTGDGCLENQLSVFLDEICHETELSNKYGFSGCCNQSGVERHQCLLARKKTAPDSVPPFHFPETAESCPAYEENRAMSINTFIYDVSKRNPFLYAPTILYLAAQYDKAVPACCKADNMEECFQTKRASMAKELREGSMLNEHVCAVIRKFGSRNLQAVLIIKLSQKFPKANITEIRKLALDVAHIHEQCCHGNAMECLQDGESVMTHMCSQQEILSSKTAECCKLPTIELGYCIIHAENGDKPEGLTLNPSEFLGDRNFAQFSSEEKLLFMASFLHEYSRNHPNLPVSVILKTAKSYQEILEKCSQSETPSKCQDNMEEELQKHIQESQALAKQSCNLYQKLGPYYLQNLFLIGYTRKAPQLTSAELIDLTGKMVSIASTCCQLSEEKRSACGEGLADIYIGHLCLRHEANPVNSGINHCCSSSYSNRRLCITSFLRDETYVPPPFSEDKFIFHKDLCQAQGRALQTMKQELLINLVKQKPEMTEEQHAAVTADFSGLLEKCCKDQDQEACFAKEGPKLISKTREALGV
Protocol: (§1) Incubation of 50 […] or 100 µg of each peptide or 10 µg of pure rat Alpha Feto Protein with 270.000 DPM ^3H C20:4 (SA 198 Ci/mmol), overnight at 4° C, in 0.5 ml of 10 mM potassium phosphate buffer 10mM pH 7.4.
(§2) Binding of Arachidonic Acid to peptides or protein measured after separation of the free ligand from the bound one using Lipidex 1000 (100 µl Lipidex solution 10 minutes at 4°C. The free ligand is bound to Lipidex 1000, the bound ligand to peptides and proteins remains in the supernatant after centrifugation.

[2] = Solubility of 3H C20:4 before and after addition of peptides or protein; type: physicochemical
Protocol: as §1
Solubility of ^3H C20:4 tested before and after addition of peptides or protein: […]

HIV p24 peptide = biological target: T2, HIV p24 peptide (Human immunodeficiency virus type 1 group M subtype B, UniProt P04591); assay: Binding of 3H arachidonic acid (C20:4) to peptide, free ligand removed with Lipidex 1000; conditions: 270.000 DPM 3H C20:4, overnight at 4° C, 10 mM potassium phosphate buffer pH 7.4
T2 construct: Peptide p24, 1 mg in 200 µl of an aqueous solution of acetic acid
Protocol: (§3) Solubilisation of the peptides: • : Peptide gp120, 1 mg in 180 µl of an aqueous solution of acetic acid and 20 µl acetonitrile • : Peptide p24, 1 mg in 200 µl of an aqueous solution of acetic acid
as §1, §2

HIV gp120 peptide = biological target: T3, HIV gp120 peptide (Human immunodeficiency virus type 1 group M subtype B, UniProt P04578); assay: as above
T3 construct: Peptide gp120, 1 mg in 180 µl of an aqueous solution of acetic acid and 20 µl acetonitrile
Protocol: as §3, §1, §2

T3 sequence (P04578 247-267): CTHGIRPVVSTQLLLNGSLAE

## Cc1cn([C@H]2C[C@H](N=[N+]=[N-])[C@@H](CO)O2)c(=O)[nH]c1=O [AZT]
HIV-RF; 10 μM
  Virus Replication at a.m.i. (log) of: -1: 2
  Virus Replication at a.m.i. (log) of: -2: 1
  Virus Replication at a.m.i. (log) of: -3: 0
  Virus Replication at a.m.i. (log) of: -4: 0
  Virus Replication at a.m.i. (log) of: -5: 0
  Virus Replication at a.m.i. (log) of: -6: 0
HIV-RF; Conc. 0.01 (μM)
  Virus Replication at a.m.i. (log) of: -1: 2
  Virus Replication at a.m.i. (log) of: -2: 2
  Virus Replication at a.m.i. (log) of: -3: 2
  Virus Replication at a.m.i. (log) of: -4: 2
  Virus Replication at a.m.i. (log) of: -5: 1
  Virus Replication at a.m.i. (log) of: -6: 0
HIV-RF; Conc. 0.1 (μM)
  Virus Replication at a.m.i. (log) of: -1: 2
  Virus Replication at a.m.i. (log) of: -2: 2
  Virus Replication at a.m.i. (log) of: -3: 2
  Virus Replication at a.m.i. (log) of: -4: 2
  Virus Replication at a.m.i. (log) of: -5: 0
  Virus Replication at a.m.i. (log) of: -6: 0
HIV-RF; Conc. 1 (μM)
  Virus Replication at a.m.i. (log) of: -1: 2
  Virus Replication at a.m.i. (log) of: -2: 2
  Virus Replication at a.m.i. (log) of: -3: 2
  Virus Replication at a.m.i. (log) of: -4: 1
  Virus Replication at a.m.i. (log) of: -5: 2
  Virus Replication at a.m.i. (log) of: -6: 2

## CCCCC/C=C\C/C=C\C/C=C\C/C=C\CCCC(=O)O [^3H C20:4, Arachidonic Acid]
[1]
  Binding of ^3H C20:4 to peptides or protein after Lipidex 1000 treatment: 14.1 x 10^-6 DPM/mg
[2]; in presence of 10 µg pure rat AFP
  Solubility of ^3H C20:4: 100%
[2]; in presence of gp120: 50µg
  Solubility of ^3H C20:4: 65%
[2]; in presence of gp120: 100µg
  Solubility of ^3H C20:4: 90%
[2]; in presence of p24 50µg
  Solubility of ^3H C20:4: 23%
[2]; in presence of p24 100µg
  Solubility of ^3H C20:4: 30%
[2]; in the presence of p24 peptide, conclusion in words
  insolubility of the Arachidonic Acid: important insolubility
[2]; without peptide or protein
  Solubility of ^3H C20:4: 70%
HIV p24 peptide
  Binding of ^3H C20:4 to peptides or protein after Lipidex 1000 treatment: 0.8 x 10^-6 DPM/mg
HIV gp120 peptide; 270.000 DPM 3H C20:4, overnight at 4° C, 10 mM potassium phosphate buffer pH 7.4
  Binding of ^3H C20:4 to peptides or protein after Lipidex 1000 treatment: 1.2 x 10^-6 DPM/mg
HIV gp120 peptide; conclusion in words
  binding of C20:4: clear binding

Source: EP0468441A1, “Use of particular compounds for manufacture of pharmaceutical formulations for metabolic treatments” (Prendergast, Patrick Thomas, priority 1990, dated 1992)
